From patent US11014926B2, “Pyrrolo-, pyrazolo-, imidazo-pyrimidine and pyridine compounds that inhibit MNK1 and MNK2” (EFFECTOR THERAPEUTICS, INC., priority 2015, dated 2021)
Structures can show the parent of a compound that is named as a salt. Where two headings read alike, the source gives them in different places.

What was measured:
[1] = target: recombinant MNK2 (Homo sapiens (Human), UniProt Q9HBH9); test: MNK Biochemical Enzymatic Assay (ADP-Glo kinase assay), MNK2
Method: Compounds are screened for MNK inhibition using the ADP-Glo kinase assay kit (Promega, catalogue No. V9101). All kinase reactions are performed in Reaction Buffer E (15 mM HEPES pH7.4, 20 mM NaCl, 1 mM EGTA, 10 mM MgCl2, 0.1 mg/ml BGG, and 0.02% Tween-20). […] Final DMSO concentration in each reaction is 1%.
(§1) Kinase reactions are carried out in 96-well half-area white flat-bottom polystyrene plates in a final volume of 25 μl. MNK1/2 enzymes are pre-incubated with compound and peptide substrate for 5 minutes prior to the addition of ATP. After the addition of ATP, kinase reactions are incubated at room temperature for 40 minutes. Reactions are subsequently stopped by the addition of 25 μl of ADP-Glo Reagent and incubating for an additional 40 minutes. The final luminescent signal used for kinase activity readout is produced by the addition of 45 μl of Kinase Detection Reagent (ADP-Glo kit, Promega) and incubating for 40 minutes. The luminescent signal is detected using a Victor 2 multilabel counter (Perkin Elmer) and the concentration of compound necessary to achieve inhibition of enzyme activity by 50% (IC50) is calculated using signals from an 8-point compound dilution series.

[2] = target: recombinant MNK1 (Homo sapiens (Human), UniProt Q9BUB5); test: MNK Biochemical Enzymatic Assay (ADP-Glo kinase assay), MNK1; conditions: 10 nM recombinant MNK1, 300 μM ATP
Method: Compounds are screened for MNK inhibition using the ADP-Glo kinase assay kit (Promega, catalogue No. V9101). All kinase reactions are performed in Reaction Buffer E (15 mM HEPES pH7.4, 20 mM NaCl, 1 mM EGTA, 10 mM MgCl2, 0.1 mg/ml BGG, and 0.02% Tween-20). Final MNK 1 reactions contained 10 nM recombinant MNK1 (Life Technologies, PR9138A), 100 μM MNK substrate peptide Ac-TATKSGSTTKNR-NH2 (American Peptide Company), 300 μM ATP, and varying concentrations of the inhibitory compound of interest. Final MNK2 reactions contained 3 nM recombinant MNK2 (Life Technologies, PV5607), 50 μM MNK substrate peptide Ac-TATKSGSTTKNR-NH2 (American Peptide Company), 10 μM ATP, and varying concentrations of the inhibitory compound of interest. Final DMSO concentration in each reaction is 1%.
as §1
To this end, IC50 values of less than 0.01 μM are labeled as “+++”, from 0.01 to 0.1 μM are labeled as “++”, and greater than 0.1 to 10.0 μM are labeled as “+” (NA means “not available”).

[3] = system: Phosphorylated eIF4E; test: peIF4E Signaling Cellular Assay (CisBio peIF4E HTRF); format: cell-based; conditions: cells incubated with compound for 2 hrs at 37° C.
Method: Phosphorylated eIF4E is assayed using the CisBio peIF4E HTRF® assay kit (CisBio, catalogue No. 64EF4PEG). Cells are plated in 96-well tissue-culture treated plate in appropriate growth medium (90 μL). Compounds (10×) are diluted using 3-fold serial dilutions in cell culture medium and added to cells. Plates are incubated for 2 hrs at 37° C. The cell supernatant is carefully removed either by aspirating supernatant or by flicking the plate. Immediately 50 μL of supplemented lysis buffer (IX) is added and incubated for at least 30 minutes at room temperature under shaking. After homogenization by pipetting up and down, 16 μL of cell lysate is transferred from the 96-well cell-culture plate to a 384-well small volume white plate, 4 μL of premixed antibody solutions (vol/vol) is prepared in the detection buffer and added. The plate is covered with a plate sealer and incubated overnight at room temperature. The fluorescence emissions at two different wavelengths are read (665 nm and 620 nm) on a Wallac Victor2. Emission ratios are converted into percent inhibitions and imported into GraphPad Prism software. […] IC50 values are determined using a nonlinear regression model available in GraphPad Prism 5.
To this end, IC50 values of less than 0.05 μM are labeled as “+++”, from 0.05 to 1.0 μM are labeled as “++”, greater than 1.0 to 100 μM are labeled as “+”, and NA means “not available”.

[4] = 3 nM recombinant MNK2, 10 μM ATP, read-out: IC50 Mnk2

Sequence of recombinant MNK1 (Q9BUB5 whole entry): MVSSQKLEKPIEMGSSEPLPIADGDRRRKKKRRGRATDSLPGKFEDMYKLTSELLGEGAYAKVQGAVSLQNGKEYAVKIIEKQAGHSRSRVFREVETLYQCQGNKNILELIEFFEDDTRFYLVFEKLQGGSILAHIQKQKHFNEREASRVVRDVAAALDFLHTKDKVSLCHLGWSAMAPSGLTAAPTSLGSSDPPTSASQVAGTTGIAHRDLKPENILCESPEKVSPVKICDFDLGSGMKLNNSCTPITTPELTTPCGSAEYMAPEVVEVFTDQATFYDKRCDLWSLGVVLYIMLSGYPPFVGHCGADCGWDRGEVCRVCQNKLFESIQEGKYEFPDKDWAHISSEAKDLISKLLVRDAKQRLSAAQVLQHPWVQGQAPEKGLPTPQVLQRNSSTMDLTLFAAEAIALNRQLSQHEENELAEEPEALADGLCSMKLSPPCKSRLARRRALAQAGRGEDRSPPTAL
Sequence of recombinant MNK2 (Q9HBH9 whole entry): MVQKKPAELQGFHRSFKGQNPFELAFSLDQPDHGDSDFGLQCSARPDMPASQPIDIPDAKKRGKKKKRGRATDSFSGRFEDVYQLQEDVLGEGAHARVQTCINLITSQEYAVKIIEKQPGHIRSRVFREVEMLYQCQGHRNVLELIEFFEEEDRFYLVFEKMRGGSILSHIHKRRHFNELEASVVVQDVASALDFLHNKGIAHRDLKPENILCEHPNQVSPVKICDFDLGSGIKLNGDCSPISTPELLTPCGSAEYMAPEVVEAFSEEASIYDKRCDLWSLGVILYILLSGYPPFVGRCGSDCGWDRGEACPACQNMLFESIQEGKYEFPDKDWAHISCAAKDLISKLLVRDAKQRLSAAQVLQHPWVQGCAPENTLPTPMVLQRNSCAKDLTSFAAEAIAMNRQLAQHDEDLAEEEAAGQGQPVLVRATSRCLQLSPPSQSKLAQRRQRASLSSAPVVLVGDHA

Row | SMILES | IC50 [1] | IC50 [2] | IC50 [1, 4] | IC50 [3]
1 | NCC1NC(=O)c2ccc(-n3ccc4cncnc43)cc21 (stereo not drawn) [Cpd. No. 21, 3-(aminomethyl)-5-(7H-pyrrolo[2,3-d]pyrimidin-7-yl)isoindolin-1-one hydrochloride] | 100 to 10000 nM | – | – | –
2 | O=C1NCc2nc(-n3ccc4cnccc43)ncc21 [Cpd. No. 14, 2-(1H-pyrrolo[3,2-c]pyridin-1-yl)-6,7-dihydro-5H-pyrrolo[3,4-d]pyrimidin-5-one] | 100 to 10000 nM | – | – | –
3 | CC1(C)NC(=O)c2c(Cl)cc(-n3ccc4cncnc43)cc21 [Cpd. No. 18, 7-chloro-3,3-dimethyl-5-(7H-pyrrolo [2,3-d]pyrimidin-7-yl) isoindolin-1-one] | – | < 10 nM | < 10 nM | 50 to 1000 nM
4 | O=C1NCc2cc(-n3cc(-c4ccncc4)c4cncnc43)ccc21 [Cpd. No. 19, 5-(5-(pyridin-4-yl)-7H-pyrrolo[2,3-d]pyrimidin-7-yl)isoindolin-1-one] | 100 to 10000 nM | – | – | –
5 | O=C1NC2(CCCC2)c2cc(-n3ccc4cncnc43)cc(Cl)c21 [Cpd. No. 27, 4′-chloro-6′-(7H-pyrrolo[2,3-d]pyrimidin-7-yl)spiro[cyclopentane-1,1′-isoindolin]-3′-one] | – | – | < 10 nM | 50 to 1000 nM
6 | N#Cc1ccccc1-c1cn(-c2ccc3c(c2)CNC3=O)c2ncncc12 [Cpd. No. 26, 2-(7-(1-oxoisoindolin-5-yl)-7H-pyrrolo[2,3-d]pyrimidin-5-yl)benzonitrile] | 100 to 10000 nM | – | – | –
7 | Nc1ncnc2c1ccn2-c1cc(Cl)c2c(c1)C1(CCCCC1)NC2=O [Cpd. No. 28, 6′-(4-amino-7H-pyrrolo[2,3-d]pyrimidin-7-yl)-4′-chlorospiro[cyclohexane-1,1′-isoindolin]-3′-one] | – | – | < 10 nM | < 50 nM
8 | O=C1NCc2cc(-n3ccc4cncnc43)ccc21 [Cpd. No. 1, 5-(7H-pyrrolo[2,3-d]pyrimidin-7-yl)isoindolin-1-one] | 100 to 10000 nM | 100 to 10000 nM | – | 1000 to 100000 nM
9 | O=C1NCc2cc(-n3ncc4cnccc43)ccc21 [Cpd. No. 4, 5-(1H-pyrazolo[4,3-c]pyridin-1-yl)isoindolin-1-one] | 100 to 10000 nM | – | – | –
10 | Cc1cc(-n2ccc3c(N)ncnc32)cc2c1C(=O)NC21CCN(C)CC1 [Cpd. No. 31, 6-(4-amino-7H-pyrrolo [2,3-d]pyrimidin-7-yl)-1′,4-dimethylspiro[isoindoline-1,4′-piperidin]-3-one] | – | – | – | 50 to 1000 nM
11 | O=C1NCc2nc(-n3ccc4cnccc43)ccc21 [Cpd. No. 5, 2-(1H-pyrrolo[3,2-c]pyridin-1-yl)-6,7-dihydro-5H-pyrrolo[3,4-b]pyridin-5-one] | 100 to 10000 nM | – | – | –
12 | Cc1cc(-n2ccc3cncnc32)cc2c1C(=O)NC2C (stereo not drawn) [Cpd. No. 22, 3,7-dimethyl-5-(7H-pyrrolo[2,3-d]pyrimidin-7-yl)isoindolin-1-one] | 10 to 100 nM | 10 to 100 nM | – | 1000 to 100000 nM
13 | O=C1NCc2cc(-n3cnc4cncnc43)ccc21 [Cpd. No. 16, 5-(9H-purin-9-yl) isoindolin-1-one] | 100 to 10000 nM | – | – | –
14 | O=C1NCc2cc(-n3cc(-c4ccccc4Cl)c4cncnc43)ccc21 [Cpd. No. 24, 5-(5-(2-chlorophenyl)-7H-pyrrolo [2,3-d]pyrimidin-7-yl) isoindolin-1-one] | 100 to 10000 nM | – | – | –
15 | O=C1NCc2cc(-n3ccc4cnccc43)ncc21 [Cpd. No. 11, 6-(1H-pyrrolo[3,2-c]pyridin-1-yl)-1H-pyrrolo[3,4-c]pyridin-3(2H)-one] | 100 to 10000 nM | – | – | 1000 to 100000 nM
16 | O=C1NCc2nc(-n3ccc4cncnc43)ccc21 [Cpd. No. 32, 2-(7H-pyrrolo[2,3-d]pyrimidin-7-yl)-6,7-dihydro-5H-pyrrolo[3,4-b]pyridin-5-one] | – | – | – | 50 to 1000 nM

Row | SMILES | IC50 [1] | IC50 [2] | IC50 [1, 4] | IC50 [3]
17 | c1ncc2ccn(-c3ccc4c(c3)CSC4)c2n1 [Cpd. No. 13, 7-(1,3-dihydrobenzo[c]thiophen-5-yl)-7H-pyrrolo[2,3-d]pyrimidine] | 100 to 10000 nM | – | – | –
18 | Cc1ncnc2c1ccn2-c1ccc2c(c1)CNC2=O [Cpd. No. 7, 5-(4-methyl-7H-pyrrolo[2,3-d]pyrimidin-7-yl) isoindolin-1-one] | 100 to 10000 nM | – | – | –
19 | O=C1NC2(CCCCC2)c2cc(-n3ccc4cncnc43)cc(Cl)c21 [Cpd. No. 29, 4′-chloro-6′-(7H-pyrrolo[2,3-d]pyrimidin-7-yl)spiro[cyclohexane-1,1′-isoindolin]-3′-one] | 10 to 100 nM | – | – | < 50 nM
20 | CC1NC(=O)c2c(Cl)cc(-n3ccc4cncnc43)cc21 (stereo not drawn) [Cpd. No. 17, 7-chloro-3-methyl-5-(7H-pyrrolo [2,3-d]pyrimidin-7-yl) isoindolin-1-one] | 10 to 100 nM | < 10 nM | – | 50 to 1000 nM
21 | O=C1NCc2cc(-n3cc(-c4cscn4)c4cncnc43)ccc21 [Cpd. No. 25, 5-(5-(thiazol-4-yl)-7H-pyrrolo[2,3-d]pyrimidin-7-yl)isoindolin-1-one] | 100 to 10000 nM | – | – | –
22 | Nc1ncnc2c1ccn2-c1ccc2c(c1)CNC2=O [Cpd. No. 12, 5-(4-amino-7H-pyrrolo [2,3-d]pyrimidin-7-yl) isoindolin-1-one] | 100 to 10000 nM | – | – | –
23 | Nc1ncnc2c1ccn2-c1cc(Cl)c2c(c1)C1(CCCC1)NC2=O [Cpd. No. 30, 6′-(4-amino-7H-pyrrolo[2,3-d]pyrimidin-7-yl)-4′-chlorospiro[cyclopentane-1,1′-isoindolin]-3′-one] | – | – | < 10 nM | < 50 nM
24 | Cc1cc(-n2ccc3c(N)ncnc32)cc2c1C(=O)NC21CCN(CC(F)F)CC1 [Cpd. No. 33, 6-(4-amino-7H-pyrrolo[2,3-d]pyrimidin-7-yl)-1′-(2,2-difluoroethyl)-4-methylspiro[isoindoline-1,4′-piperidin]-3-one] | – | – | – | 50 to 1000 nM
25 | CC1NC(=O)c2ccc(N3CCc4cncnc43)cc21 (stereo not drawn) [Cpd. No. 3, 3-methyl-5-(5H-pyrrolo[2,3-d]pyrimidin-7(6H)-yl)isoindolin-1-one] | 100 to 10000 nM | – | – | 1000 to 100000 nM
26 | CC1NC(=O)c2ccc(-n3ccc4cncnc43)cc21 (stereo not drawn) [Cpd. No. 2, 3-methyl-5-(7H-pyrrolo[2,3-d]pyrimidin-7-yl)isoindolin-1-one] | 100 to 10000 nM | – | – | –
27 | c1cc2cc(-n3ccc4cncnc43)ccc2cn1 [Cpd. No. 6, 6-(7H-pyrrolo[2,3-d]pyrimidin-7-yl)isoquinoline] | 100 to 10000 nM | – | – | 1000 to 100000 nM
28 | Cn1cc(-c2cn(-c3ccc4c(c3)CNC4=O)c3ncncc23)cn1 [Cpd. No. 8, 5-(5-(1-methyl-1H-pyrazol-4-yl)-7H-pyrrolo[2,3-d]pyrimidin-7-yl)isoindolin-1-one] | 10 to 100 nM | 10 to 100 nM | – | 1000 to 100000 nM
29 | COC(=O)NCC1NC(=O)c2ccc(-n3ccc4cncnc43)cc21 (stereo not drawn) [Cpd. No. 20, methyl ((3-oxo-6-(7H-pyrrolo[2,3-d]pyrimidin-7-yl)isoindolin-1-yl)methyl)carbamate] | 100 to 10000 nM | – | – | –
30 | O=C1NCc2cc(-n3ccc4cncnc43)cc(F)c21 [Cpd. No. 23, 7-fluoro-5-(7H-pyrrolo [2,3-d]pyrimidin-7-yl) isoindolin-1-one] | 100 to 10000 nM | – | – | –
31 | Cc1cc(-n2ccc3c(N)ncnc32)nc2c1C(=O)NC21CCCCC1 [Cpd. No. 34, 2′-(4-amino-7H-pyrrolo[2,3-d]pyrimidin-7-yl)-4′-methylspiro[cyclohexane-1,7′-pyrrolo[3,4-b]pyridin]-5′(6′H)-one] | – | – | – | < 50 nM
